Results from patent US20210230131A1, “POLYAMINO BIARYL COMPOUNDS AND THEIR USE” (INSERM (INSTITUT NATIONAL DE LA SANTÉ ET DE LA RECHERCHE …, priority 2018, published 2021).

What was measured:
[1] = system: CTFα; assay: APP carboxy-terminal fragment αCTF by Western blot in SY5Y-APP695WT cells; assay type: cell-based, human; details: CTFα increase compared to chloroquine ([CTF]compound/[CTF]CQ) at 3 μM; mean of at least three experiments
From the text: (§1) Antibodies. Primary antibodies used in this study for western-blot analysis included a homemade rabbit antiserum against the last 17 amino acids of human APP protein sequence, named APP-Cter-C17 (1/5000 in TBS-M). Anti-β-actin (1/10 000 in TBS-M) was obtained from Sigma. Anti-LC3B (1/2000 in TBS-BSA) and anti-p62/SQSTM1 (1/2000 in TBS-M) antibodies were purchased from Cell Signaling Technology. Secondary antibodies (peroxidase-labeled goat anti-rabbit IgG, 1/5000 or peroxidase-labeled horse anti-mouse IgG, 1/50000 in TBS-T) were obtained from Vector Laboratories.
(§2) Cell culture and treatment. The human neuroblastoma cell line SY5Y-APP^695WT was maintained in Dulbecco's modified Eagle medium (DMEM, high glucose, pyruvate—GIBCO by Life Technologies) supplemented with 10% foetal bovine serum, 2 mM L-glutamine, 1 mM non-essential amino acids and penicillin/streptomycin (GIBCO by Life Technologies) at 37° C. in a 5% CO2 humidified incubator. SY5Y-APP^695WT cells were maintained in 75 cm^2 culture flasks (Falcon) with supplemented DMEM medium until they reached 80% of confluence 24 h before treatment.
(§3) For drug treatment, cells were plated at a rate of 5·10^5 cells per well into 12-well plates (Falcon) and cultured with 1 mL supplemented DMEM cell medium for 24 h before drug exposure. The following day, cell medium was replaced with fresh medium containing drugs diluted at the indicated concentrations. Cells were treated for 24 h. At the end of treatments, the cell medium was collected and kept at −80° C. until use for dosage. Then, cells were rinsed once with PBS and extracted in 100 μL of Laemmli buffer (10 mM Tris, 20% glycerol and 2% Sodium dodecyl sulfate) using a cell-scraper. The cell lysate was further sonicated (30 pulses of 0.5 s, 60 Hz) for 5 min. Total protein concentration was determined using the Pierce BCA Protein Assay Kit (Thermo scientific) according to the manufacturer's instructions. Samples were stored at −80° C. until analysis.
(§4) Western Blot Analysis. Cell protein lysates were prepared for western-blot analysis by diluting the sample with 1 volume of NuPAGE® lithium dodecyl sulfate (LDS) 2× sample buffer supplemented with 20% NuPAGE® sample reducing agents (Invitrogen). Samples were heat 10 min at 100° C. 10 μg of total proteins per well were loaded onto a precast 4-12% Criterion XT Bis-Tris polyacrylamide gel (Bio-Rad) and electrophoresis was achieved after applying a tension of 150 V during 90 min using a Criterion electrophoresis Cell with the NuPAGE® MOPS SDS running buffer (1×). Proteins were transferred to a nitrocellulose membrane of […] pore size (G&E Healthcare) using the Criterion blotting system and applying a tension of 100 V for 45 min. To resolve proteins of low molecular weights such as carboxy-terminal fragments of APP, 12% Criterion XT Bis-Tris polyacrylamide gels (Bio-Rad) were used and electrophoresis was performed during 70 min at 150 V in a NuPAGE® MES SDS running buffer (1×). Proteins were transferred to a nitrocellulose membrane of 0.2 μm pore size (G&E Healthcare) at 100 V for 40 min. Molecular weights calibration was achieved using molecular weight markers (Novex and Magic Marks, Life Technologies). Protein transfer and quality were determined by a reversible Ponceau Red coloration (0.2% Xylidine Ponceau Red and 3% Trichloroacetic acid). Membranes were then blocked in 25 mM Tris-HCl pH 8.0, 150 mM NaCl, 0.1% Tween-20 (v/v) (TBS-T) and 5% (w/v) of skimmed milk (TBS-M) or 5% (w/v) of bovine serum albumin (TBS-BSA) depending on the antibody during 1 h. Membrane was rinsed three-times 10 min in TBS-T before incubation with the primary antibody overnight at 4° C. Membrane was rinsed 3 times 10 min with TBS-T and then incubated with the secondary antibody for 45 min at room temperature (RT). […] Quantifications of protein expression levels were performed with ImageJ Software (NIH). […]

[2] = system: AICD; assay: AICD by Western blot in SY5Y-APP695WT cells; assay type: cell-based, human; details: AICD increase compared to chloroquine ([AICD]compound/[AICD]CQ) at 3 μM; mean of at least three experiments
From the text: as §1, §2, §3, §4

[3] = system: Aβ1-42 peptide secretion; assay: Quantification of secreted Aβ1-42 by ELISA in SY5Y-APP695WT cells; assay type: cell-based; details: Homo sapiens; concentration inhibiting 50% of Aβ1-42 peptide secretion in SY5Y cells; 24 h treatment; mean ± SD of at least two experiments in triplicate
Experimental: (§5) Cell culture and treatment. The human neuroblastoma cell line […] was maintained in Dulbecco's modified Eagle medium (DMEM, high glucose, pyruvate-GIBCO by Life Technologies) supplemented with 10% foetal bovine serum, 2 mM L-glutamine, 1 mM non-essential amino acids and penicillin/streptomycin (GIBCO by Life Technologies) at 37° C. in a 5% CO2 humidified incubator. […] cells were maintained in 75 cm^2 culture flasks (Falcon) with supplemented DMEM medium until they reached 80% of confluence 24 h before treatment. For compounds treatment, a 10 mM stock solution was diluted in freshly supplemented DMEM medium to obtain the precise final concentration of drug. Bafilomycin A1 (BafA1), the vacuolar […] type H+ ATPase inhibitor, was purchased from Merck Millipore and was used at a final dilution of 100 nM. For drug treatment, cells were plated at a rate of 5·10^5 cells per well into 12-well plates (Falcon) and cultured with 1 mL supplemented DMEM cell medium for 24 h before drug exposure. The following day, cell medium was replaced with fresh medium containing drugs diluted at the indicated concentrations. Cells were treated for 24 h. At the end of treatments, the cell medium was collected and kept at -80° C. until use for dosage. Then, cells were rinsed once with PBS and extracted in 100 μL of Laemmli buffer (10 mM Tris, 20% glycerol and 2% Sodium dodecyl sulfate) using a cell-scraper. The cell lysate was further sonicated (30 pulses of 0.5 s, 60 Hz) for 5 min. Total protein concentration was determined using the Pierce BCA Protein Assay Kit (Thermo scientific) according to the manufacturer's instructions. Samples were stored at -80° C. until analysis. Quantification of secreted Aβ1-40/1-42 and sAPPα/sAPPβ. Conditioned media of […] collected at the end of treatments were centrifuged at 1000 g for 5 min to eliminate cells debris. Aβ1-40 and Aβ1-42 peptide concentrations in […] were determined using amyloid-beta 40 and 42 Human ELISA kits (Invitrogen) according to the manufacturer's instructions after 1:10 and 1:2 dilutions of supernatants in ELISA buffer, respectively. sAPPα and sAPPβ concentrations in ng/mL were determined using the sAPPα/sAPPβ kit (Meso Scale Diagnostics, MSD®) according to the manufacturer's instructions. Compounds of the invention (compounds 24-37, 41, 44 and 51-58) were evaluated for their ability to modulate APP processing on SY5Y human neuroblastoma cell line stably expressing the neuronal isoform of human wild-type APP695 (SYSY-APPwt). Aβ levels (Aβ1-40 and Aβ1-42) after treatment with reference and tested compounds were measured by ELISA (Table 2). […] APP carboxy-terminal fragments (αCTFs and AICD) were measured by Western blot and quantified. The effect of reference and tested compounds on αCTFs and AICD are expressed as the intensity of corresponding western-blot bands resulting from the secretase cleavages.

[4] = system: Aβ1-40 peptide secretion; assay: Quantification of secreted Aβ1-40 by ELISA in SY5Y-APP695WT cells; assay type: cell-based; details: Homo sapiens; concentration inhibiting 50% of Aβ1-40 peptide secretion in SY5Y cells; 24 h treatment; mean ± SD of at least two experiments in triplicate
Experimental: as §5

SMILES | CTFα vs CQ (3 μM) [1] | AICD vs CQ (3 μM) [2] | IC50 [3] | IC50 [4]
CCN(CC)CCCC(C)Nc1ccnc2cc(Cl)ccc12 (stereo not shown) [CQ, chloroquine, reference compound] | 1 | 1 |  | 
c1cc(-c2ccc(NCCCN3CCCCC3)c(OCCN3CCCCC3)c2)ccc1CN1CCCCC1 [Compound 24, 2-[2-(Piperidin-1-yl)ethoxy]-N-[3-(piperidin-1-yl)propyl]-4-[4-(piperidin-1-ylmethyl)phenyl]aniline] | 2.6 | 2.5 | 3300 ± 2100 nM | 2100 ± 600 nM
CN(C)Cc1ccc(-c2ccc(NCCCN3CCCCC3)c(OCCN3CCCCC3)c2)cc1 [Compound 25, 4-(4-[(Dimethylamino)methyl]phenyl)-2-[2-(piperidin-1-yl)ethoxy]-N-[3-(piperidin-1-yl)propyl]aniline] | 2.1 | 2.5 | 1700 ± 400 nM | 1500 ± 100 nM
c1cc(CN2CCCCC2)cc(-c2ccc(NCCCN3CCCCC3)c(OCCN3CCCCC3)c2)c1 [Compound 26, 2-[2-(1-piperidyl)ethoxy]-4-[3-(1-piperidylmethyl)phenyl]-N-[3-(1-piperidyl)propyl]aniline] | 3.3 | 2.6 | 4800 ± 600 nM | 4300 ± 700 nM
c1ccc(-c2ccc(NCCCN3CCCCC3)c(OCCN3CCCCC3)c2)c(CN2CCCCC2)c1 [Compound 27, 2-[2-(Piperidin-1-yl)ethoxy]-N-[3-(piperidin-1-yl)propyl]-4-[2-(piperidin-1-ylmethyl)phenyl]aniline] | 4.3 | 2.7 | 4100 ± 1300 nM | 2600 ± 100 nM
c1ccc(-c2ccc(NCCCN3CCCCC3)c(OCCN3CCCCC3)c2)c(CN2CCOCC2)c1 [Compound 28, 4-[2-(Morpholin-4-ylmethyl)phenyl]-2-[2-(piperidin-1-yl)ethoxy]-N-[3-(piperidin-1-yl)propyl]aniline] | 3.1 | 1.7 | 4200 ± 1500 nM | 2800 ± 1200 nM
CN1CCN(Cc2ccccc2-c2ccc(NCCCN3CCCCC3)c(OCCN3CCCCC3)c2)CC1 [Compound 29, 4-(2-[(4-Methylpiperazin-1-yl)methyl]phenyl)-2-[2-(piperidin-1-yl)ethoxy]-N-[3-(piperidin-1-yl)propyl]aniline] | 5.1 | 3.7 | 2700 ± 800 nM | 2600 ± 200 nM
CN(C)Cc1ccccc1-c1ccc(NCCCN2CCCCC2)c(OCCCN2CCCCC2)c1 [Compound 32, 2′-((Dimethylamino)methyl)-3-(3-(piperidin-1-yl)propoxy)-N-(3-(piperidin-1-yl)propyl)-[1,1′-biphenyl]-4-amine] | 4.5 | 5.1 | 2000 ± 100 nM | 2100 ± 300 nM
CN(C)Cc1ccccc1-c1ccc(NCCN2CCCCC2)c(OCCN2CCCCC2)c1 [Compound 33, 2′-((Dimethylamino)methyl)-3-(2-(piperidin-1-yl)ethoxy)-N-(2-(piperidin-1-yl)ethyl)-[1,1′-biphenyl]-4-amine] | 5.0 | 4.8 | 1200 ± 600 nM | 1400 ± 500 nM
CN(C)Cc1ccccc1-c1ccc(NCCN2CCCCC2)c(OCCCN2CCCCC2)c1 [Compound 34, 2′-((Dimethylamino)methyl)-N-(2-(piperidin-1-yl)ethyl)-3-(3-(piperidin-1-yl)propoxy)-[1,1′-biphenyl]-4-amine] | 4.5 | 3.4 | 1800 ± 700 nM | 2000 ± 200 nM
CN(C)Cc1ccccc1-c1ccc(NCCN2CCCCC2)c(OCCCCN2CCCCC2)c1 [Compound 35, 2′-((Dimethylamino)methyl)-3-(4-(piperidin-1-yl)butoxy)-N-(2-(piperidin-1-yl)ethyl)-[1,1′-biphenyl]-4-amine] | 4.4 | 4.8 | 1600 ± 300 nM | 1600 ± 100 nM
CN(C)Cc1ccccc1-c1ccc(NCCCCN2CCCCC2)c(OCCN2CCCCC2)c1 [Compound 36, 2′-((Dimethylamino)methyl)-N-(4-(piperidin-1-yl)butyl)-3-(2-(piperidin-1-yl)ethoxy)-[1,1′-biphenyl]-4-amine] | 4.2 | 3.0 | 1600 ± 800 nM | 1700 ± 300 nM
c1ccc(-c2ccc(NCCCN3CCCCC3)c(OCCN3CCCCC3)c2)cc1 [Compound 37, 3-(2-(Piperidin-1-yl)ethoxy)-N-(3-(piperidin-1-yl)propyl)-[1,1′-biphenyl]-4-amine] | 2.4 | 2.1 | 4000 ± 400 nM | 5200 ± 100 nM
CN1CCN(Cc2ccn(-c3ccc(NCCCN4CCCCC4)c(OCCN4CCCCC4)c3)c2)CC1 [Compound 54, 4-(3-[(4-Methylpiperazin-1-yl)methyl]-1H-pyrrol-1-yl)-2-[2-(piperidin-1-yl)ethoxy]-N-[3(piperidin-1-yl)propyl]aniline] |  |  | 12100 ± 7800 nM | 8300 ± 4000 nM
